Here are results for 12 molecules from PMC12030568, “Binding Affinity of Synthetic Cannabinoids to Human Serum Albumin: Site Characterization and Interaction Insights” (Pharmaceuticals, 2025).

Molecules are shown by their SMILES. Entries after “also recorded” stand apart in the source; their conditions may differ.

In data set [1] the target is human serum albumin (HSA) (Homo sapiens, UniProt P02768). Put plainly: HPAC zonal elution on CHIRALPAK HSA column, bound fraction determination. The conditions noted are these: for Bound Fraction (%b) / Retention factor (k): values at 100% aqueous buffer, extrapolated from log k vs % ACN (11-16%), 67 mM potassium phosphate buffer pH 7.0, 25 °C; for experimental %b to HSA (controls): ACN in mobile phase ranging from 2% to 20%. How it is done: Binding affinity studies were conducted using a series of commercially available synthetic cannabinoids (Figure 1). […] The binding affinity of the synthetic cannabinoids to HSA was measured based on previously established methods using HPAC [15, 35, 36]. […] The analyses were performed using zonal elution in reversed-phase mode. A potassium phosphate buffer solution (67 mM, pH 7.0) was selected as the mobile phase due to HSA’s stability in phosphate buffers, and to closely mimic physiological conditions. Several studies describe the use of this buffer in protein binding studies mimicking the physiological conditions of human plasma.
Sequence of human serum albumin (HSA) (P02768 25-609): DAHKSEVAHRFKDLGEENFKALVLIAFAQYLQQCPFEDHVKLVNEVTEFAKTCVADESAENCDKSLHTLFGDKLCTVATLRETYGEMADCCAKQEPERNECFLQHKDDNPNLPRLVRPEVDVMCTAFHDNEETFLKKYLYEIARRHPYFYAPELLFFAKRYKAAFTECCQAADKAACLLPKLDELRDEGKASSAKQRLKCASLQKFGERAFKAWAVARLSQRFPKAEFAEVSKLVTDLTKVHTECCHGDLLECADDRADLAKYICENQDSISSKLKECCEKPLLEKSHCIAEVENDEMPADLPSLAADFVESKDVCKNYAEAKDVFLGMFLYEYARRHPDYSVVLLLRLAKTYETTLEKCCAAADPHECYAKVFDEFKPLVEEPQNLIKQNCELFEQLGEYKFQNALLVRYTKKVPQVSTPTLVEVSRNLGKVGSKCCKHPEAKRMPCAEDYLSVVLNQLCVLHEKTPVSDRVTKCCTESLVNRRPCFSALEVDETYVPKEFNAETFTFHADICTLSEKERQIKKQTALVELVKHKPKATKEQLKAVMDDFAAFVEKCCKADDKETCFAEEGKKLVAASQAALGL
ACN was chosen for the HSA studies, as it is one of the most commonly used organic modifiers in HSA columns. However, a low percentage of the organic modifier was necessary to prevent protein denaturation and prolong the column’s lifespan. Additionally, the presence of an organic modifier must be carefully considered, as it can alter the number of available binding sites by affecting the spatial conformation of the protein [41].
To calculate the bound fraction (%b) to HSA, different proportions of organic modifier were added to the mobile phase, ranging from 11% to 15%. In the Supplementary Materials (Figures S1–S6), representative chromatograms for each synthetic cannabinoid are shown, as examples. […] All analyses were performed in triplicate. […] To determine the %b values in a 100% aqueous buffer, an extrapolation was performed by plotting the logarithm of the retention factor (log k) against the percentage of the organic modifier (Figure S7, Supplementary Materials).
To determine the experimental %b values for these controls, different proportions of ACN were added to the mobile phase, ranging from 2% to 20%.
The sample injections (10 µL) were carried out in triplicate, and the flow rate was set to 0.5 mL/min.
(§1) The analyses were performed in reversed-phase mode using as mobile phases mixtures of 67 mM potassium phosphate buffer solution (pH 7.0) with different proportions of ACN. […] All chromatographic analyses were performed at 25 ± 2 °C, under isocratic mode, with UV detection at 220, 254, and 300 nm. All mobile phases were prepared in a volume/volume ratio (v/v), filtered through polyamide membrane filters of 0.2 µm pore size from Whatman® GmbH (Dassel, Germany), and degassed in an ultrasonic bath (Soltec® Sonica® Ultrasonic cleaner) for at least 15 min before use.
Zonal analysis was the approach selected for the development of this work. The retention of the analyte is directly related to its interaction with the immobilized HSA, and can be described with Equation (1).(1) k=(KA1n1+…+KAnnn)mL/VM
The retention factor (k) is related to the number of binding sites and to their corresponding equilibrium constants (KA). VM represents the void volume and mL the total moles of the analyte binding sites. Equation (2) was used to calculate the retention factor [58].(2) k=tr−t0/t0
tr corresponds to the retention time of the analyte and t0 to the dead time. The t0 was taken from each individual run and was considered to be equal to the solvent front.
One application of zonal elution in HPAC is to measure the binding affinity of a drug to an immobilized protein.

The next data set has as its target T1, HSA site I (Homo sapiens, UniProt P02768).
T1 construct: catalogue number not given
In words: Zonal displacement chromatography on HSA column with warfarin (site I probe). The conditions noted are these: competitor warfarin 5-20 µM in mobile phase; 13% ACN; plot of 1/k vs competitor concentration. The data set is classed as binding. How it is done:
(§2) To gain deeper insights into HSA binding, displacement studies were conducted to further investigate the binding sites of the synthetic cannabinoids on this protein. […] These competitors are commonly used in displacement studies to elucidate binding interactions at specific HSA sites.
(§3) Various concentrations of the competitors were added to the mobile phase, based on previous studies.
(§4) The chromatographic data are plotted as 1/k versus the competitor concentration.
as §1
(§5) Stock solutions of all synthetic cannabinoids were prepared in EtOH at the concentration of 0.2 mg/mL and further diluted with the mobile phase, the potassium phosphate buffer (67 mM, pH 7.0), to a final concentration of 50 μg/mL. All working solutions were filtered through a membrane of 0.45 µm pore size and vortexed for at least 30 s before injection. […] All solutions were stored at 4 °C. […] These concentrations were selected based on previous displacement studies. An aqueous buffer of a 67 mM solution of potassium phosphate was prepared by adjusting the pH to 7.0 with a solution of saturated NaOH. The aqueous buffer pH was controlled with a Crison® BasiC 20 pH meter.
(§6) Equation (5) can be used to describe the impact of the competitor (I) on the retention time of each analyte (A) [32, 58](5) 1/k=VMKI[I]/KAmL+VM/KAmL where KI is the association equilibrium constant of I at the binding site of competition with A, [I] is the concentration of the competitor in the mobile phase, and KA is the association equilibrium constant of A at the binding site of competition with I.
(§7) If a direct competition between the analyte and the competing agent occurs, a straight line with a positive slope is observed in the plot of 1/k versus [I]; if allosteric competition between the analyte and the competing agent occurs, a straight line with a negative slope is observed in the plot of 1/k versus [I]; and if random variations are observed, no competition between the analyte and the competing agent occurs.

The next data set concerns the target T2, HSA site II (Homo sapiens, UniProt P02768).
T2 construct: catalogue number not given
Put plainly: Zonal displacement chromatography on HSA column with (S)-ibuprofen and L-tryptophan (site II probes). The data set is classed as binding. The conditions noted are these: 13% ACN; for Interaction with (S)-ibuprofen on HSA: competitor (S)-ibuprofen 5-20 µM in mobile phase, negative slope of 1/k vs concentration; for Binding profile at HSA Site II: competitor L-tryptophan 5-20 µM in mobile phase, plot of 1/k vs competitor concentration. The procedure: as §2, §3, §4, §1, §5, §6, §7

Data set [2] has as its system HSA. The conditions noted are these: cited from earlier work.
On the set-up of data set [3]: method as in PMID 26810883. The following applies: ultrafiltration and LC-MS; cited from earlier work.
Data set [4] concerns HSA. The following applies: cited from earlier work. This is another data set of the same source.

T2 sequence (P02768 25-609): as above
T1 sequence (P02768 25-609): as above

With `CC(C)[C@H](NC(=O)c1nn(CC2CCCCC2)c2ccccc12)C(N)=O`, in data set [1], the “Bound Fraction (%b)” value is reported as 99.7% and the “Retention factor (k)” value is recorded as 294.40. At HSA site I, the “Binding profile at HSA Site I” value was “bind to both site I and site II of HSA; also recorded: Binding occurs (competition with warfarin)”. On HSA site II, the “Interaction with (S)-ibuprofen on HSA” value is recorded as “exhibits allosteric interactions with (S)-ibuprofen; also recorded: Allosterically interacts with (S)-ibuprofen”; the “Binding profile at HSA Site II” value was “bind to both site I and site II of HSA; also recorded: Binding occurs (competition with L-tryptophan)”.

Regarding `COC(=O)[C@@H](NC(=O)c1nn(CCCCCF)c2ccccc12)C(C)C` [5F-AMB], in data set [1], the “Bound Fraction (%b)” value is 98.9% and the “Retention factor (k)” value was 87.30. Further, the “Binding profile at HSA Site I” value on HSA site I is “compete with warfarin for site I; also recorded: Binding occurs (competition with warfarin)”. At HSA site II, the “Interaction with (S)-ibuprofen on HSA” value was “interact allosterically with (S)-ibuprofen; also recorded: Allosterically interacts with (S)-ibuprofen” and the “Binding profile at HSA Site II” value is “do not compete with L-tryptophan; also recorded: Binding does not occur (no competition with L-tryptophan)”.

On to `CCCCCn1nc(C(=O)N[C@H](C(N)=O)C(C)C)c2ccccc21` [AB-PINACA], for which, in data set [1], the “Bound Fraction (%b)” value is reported as 98.7% and the “Retention factor (k)” value is given as 79.11. At HSA site I, the “Binding profile at HSA Site I” value was “compete with warfarin for site I; also recorded: Binding occurs (competition with warfarin)”. Moreover, on HSA site II, the “Interaction with (S)-ibuprofen on HSA” value is “interact allosterically with (S)-ibuprofen; also recorded: Allosterically interacts with (S)-ibuprofen” and the “Binding profile at HSA Site II” value is given as “do not compete with L-tryptophan; also recorded: Binding does not occur (no competition with L-tryptophan)”.

As to `CC(C)(C)[C@H](NC(=O)c1nn(Cc2ccc(F)cc2)c2ccccc12)C(N)=O` [ADB-FUBINACA], in data set [1], the “Bound Fraction (%b)” value is given as 99.8% and the “Retention factor (k)” value is reported as 619.87. At HSA site I, the “Binding profile at HSA Site I” value is “neither site I nor site II is its primary binding site in HSA; also recorded: Binding does not occur (no competition with warfarin)”. Besides, at HSA site II, the “Interaction with (S)-ibuprofen on HSA” value is recorded as “Allosterically interacts with (S)-ibuprofen” and the “Binding profile at HSA Site II” value is “neither site I nor site II is its primary binding site in HSA; also recorded: Binding does not occur (no competition with L-tryptophan)”.

As to `COC(=O)[C@@H](NC(=O)c1nn(Cc2ccc(F)cc2)c2ccccc12)C(C)C` [AMB-FUBINACA], in data set [1], the “Bound Fraction (%b)” value was 99.7% and the “Retention factor (k)” value is on record as 326.38. Also, the “Binding profile at HSA Site I” value at HSA site I is reported as “compete with warfarin for site I; also recorded: Binding occurs (competition with warfarin)”. At HSA site II, the “Interaction with (S)-ibuprofen on HSA” value is reported as “interact allosterically with (S)-ibuprofen; also recorded: Allosterically interacts with (S)-ibuprofen” and the “Binding profile at HSA Site II” value is listed as “do not compete with L-tryptophan; also recorded: Binding does not occur (no competition with L-tryptophan)”.

In the case of `O=C(c1cccc2ccccc12)c1nc2ccccc2n1CCCCCF` [FUBIMINA], in data set [1], the “Bound Fraction (%b)” value is listed as 99.9% and the “Retention factor (k)” value is listed as 968.23.

Regarding `N[C@@H](Cc1c[nH]c2ccccc12)C(=O)O` [L-Tryptophan, L-tryptophan], in the data set on HSA [2], the “Affinity constant of competitor for HSA (Lit.)” value was “KI L-Tryptophan (M^−1) (Lit. 4.4 × 10^4 M^−1) [55]”.

For `Cc1c(C(=O)c2cccc3ccccc23)c2cccc3c2n1[C@H](CN1CCOCC1)CO3` [WIN 55,212-2], the plasma protein binding in data set [3] is 95%.

In the case of `CC(=O)CC(c1ccccc1)c1c(O)c2ccccc2oc1=O` (centres unmarked) [Warfarin, warfarin], the “Affinity constant of competitor for HSA (Lit.)” value in the data set on HSA [2] was “KI Warfarin (M^−1) (Lit. 3.3 × 10^5 M^−1) [55]”.

As to `CN(C)CCCN1c2ccccc2Sc2ccc(Cl)cc21` [chlorpromazine, reference compound], the “experimental %b to HSA (controls)” value in data set [1] worked out at 82.12%. Moreover, the “reported %b to HSA” value in the data set on HSA [4] was > 90%.

For `COc1ccc2c(c1)c(CC(=O)O)c(C)n2C(=O)c1ccc(Cl)cc1` [indomethacin], the “reported %b to HSA” value with HSA [4] is 97.8%.

As to `Cc1ncc([N+](=O)[O-])n1CCO` [metronidazole, reference compound], the “experimental %b to HSA (controls)” value in data set [1] is reported as 19.78%. Besides, the “reported %b to HSA” value in the data set with HSA [4] was 20%.
